Assays:
Type in all cases: in vivo
Lolium perenne (LOLPE) [1] = assay: Pre-emergence herbicidal activity, LOLPE; parameters: key: 5=total damage to plant; 0=no damage to plant; details: 1000 g/ha, sprayed pre-emergence, evaluated after 13 days, damage score 0-5
Protocol: (§1) Seeds of a variety of test species were sown in standard soil in pots: Triticum aestivium (TRZAW), Avena fatua (AVEFA), Alopecurus myosuroides (ALOMY), Echinochloa crus-galli (ECHCG), Lolium perenne (LOLPE), and Setaria faberi (SETFA). After cultivation for one day (pre-emergence) under controlled conditions in a glasshouse (at 24/16° C., day/night; 14 hours light; 65% humidity), the plants were sprayed with an aqueous spray solution derived from the formulation of the technical active ingredient in acetone/water (50:50) solution containing 0.5% Tween 20 (polyoxyethelyene sorbitan monolaurate, CAS RN 9005-64-5). The test plants were then grown in a glasshouse under controlled conditions (at 24/16° C., day/night; 14 hours light; 65% humidity) and watered twice daily. After 13 days, the test was evaluated (5=total damage to plant; 0=no damage to plant).

[2] = test system: Alopecurus myosuroides (ALOMY); assay: Post-emergence herbicidal activity, ALOMY; parameters: key: 5=total damage to plant; 0=no damage to plant; details: 1000 g/ha, sprayed post-emergence (8 days cultivation), evaluated after 13 days, damage score 0-5
Protocol: (§2) Seeds of a variety of test species were sown in standard soil in pots: Triticum aestivium (TRZAW), Avena fatua (AVEFA), Alopecurus myosuroides (ALOMY), Echinochloa crus-galli (ECHCG), Lolium perenne (LOLPE), and Setaria faberi (SETFA). After 8 days cultivation (post-emergence) under controlled conditions in a glasshouse (at 24/16° C., day/night; 14 hours light; 65% humidity), the plants were sprayed with an aqueous spray solution derived from the formulation of the technical active ingredient in acetone/water (50:50) solution containing 0.5% Tween 20 (polyoxyethelyene sorbitan monolaurate, CAS RN 9005-64-5). The test plants were then grown in a glasshouse under controlled conditions (at 24/16° C., day/night; 14 hours light; 65% humidity) and watered twice daily. After 13 days, the test was evaluated (5=total damage to plant; 0=no damage to plant).

Avena fatua (AVEFA) [3] = assay: Pre-emergence herbicidal activity, AVEFA; parameters: key: 5=total damage to plant; 0=no damage to plant; details: 1000 g/ha, sprayed pre-emergence, evaluated after 13 days, damage score 0-5
Protocol: as §1

[4] = test system: Triticum aestivium (TRZAW); assay: Post-emergence herbicidal activity, TRZAW; parameters: key: 5=total damage to plant; 0=no damage to plant; details: 1000 g/ha, sprayed post-emergence (8 days cultivation), evaluated after 13 days, damage score 0-5
Protocol: as §2

[5] = test system: Alopecurus myosuroides (ALOMY); assay: Pre-emergence herbicidal activity, ALOMY; parameters: key: 5=total damage to plant; 0=no damage to plant; details: 1000 g/ha, sprayed pre-emergence, evaluated after 13 days, damage score 0-5
Protocol: as §1

[6] = test system: Echinochloa crus-galli (ECHCG); assay: Post-emergence herbicidal activity, ECHCG; parameters: key: 5=total damage to plant; 0=no damage to plant; details: 1000 g/ha, sprayed post-emergence (8 days cultivation), evaluated after 13 days, damage score 0-5
Protocol: as §2

Lolium perenne (LOLPE) [7] = assay: Post-emergence herbicidal activity, LOLPE; parameters: key: 5=total damage to plant; 0=no damage to plant; details: 1000 g/ha, sprayed post-emergence (8 days cultivation), evaluated after 13 days, damage score 0-5
Protocol: as §2

Setaria faberi (SETFA) [8] = assay: Pre-emergence herbicidal activity, SETFA; parameters: key: 5=total damage to plant; 0=no damage to plant; details: 1000 g/ha, sprayed pre-emergence, evaluated after 13 days, damage score 0-5
Protocol: as §1

Avena fatua (AVEFA) [9] = assay: Post-emergence herbicidal activity, AVEFA; details: 1000 g/ha, sprayed post-emergence (8 days cultivation), evaluated after 13 days, damage score 0-5
Protocol: as §2

Setaria faberi (SETFA) [10] = assay: Post-emergence herbicidal activity, SETFA; parameters: key: 5=total damage to plant; 0=no damage to plant; details: 1000 g/ha, sprayed post-emergence (8 days cultivation), evaluated after 13 days, damage score 0-5
Protocol: as §2

[11] = test system: Echinochloa crus-galli (ECHCG); assay: Pre-emergence herbicidal activity, ECHCG; details: 1000 g/ha, sprayed pre-emergence, evaluated after 13 days, damage score 0-5
Protocol: as §1

[12] = test system: Triticum aestivium (TRZAW); assay: Pre-emergence herbicidal activity, TRZAW; parameters: key: 5=total damage to plant; 0=no damage to plant; details: 1000 g/ha, sprayed pre-emergence, evaluated after 13 days, damage score 0-5
Protocol: as §1

SMILES | Control of weed species after pre-emergence application: LOLPE (Lolium perenne (LOLPE) [1]) | Control of weed species after post-emergence application: ALOMY [2] | Control of weed species after pre-emergence application: AVEFA (Avena fatua (AVEFA) [3]) | Control of weed species after post-emergence application: TRAZW [4] | Control of weed species after pre-emergence application: ALOMY [5] | Control of weed species after post-emergence application: ECHCG [6] | Control of weed species after post-emergence application: LOLPE (Lolium perenne (LOLPE) [7]) | Control of weed species after pre-emergence application: SETFA (Setaria faberi (SETFA) [8]) | Control of weed species after post-emergence application: AVEFA (Avena fatua (AVEFA) [9]) | Control of weed species after post-emergence application: SETFA (Setaria faberi (SETFA) [10]) | Control of weed species after pre-emergence application: ECHCG [11] | Control of weed species after pre-emergence application: TRAZW [12]
CC(=O)N(C(C)=O)c1ncc(-c2cncc(F)c2)nc1C(F)(F)F [Compound I4, 2-(diacetylamino)-3-trifluoromethyl-5-(5-fluoropyrid-3-yl)pyrazine] | 0 | 0 | 1 | 0 | 0 | 3 | 1 | 4 | 2 | 4 | 3 | 3
COCCC(=O)N(C(=O)CCOC)c1ncc(-c2cncc(F)c2)nc1C(F)(F)F [Compound I11] | 0 | 0 | 0 | 1 | 0 | 5 | 1 | 4 | 4 | 5 | 3 | 1
CCC(=O)Nc1ncc(-c2cncc(F)c2)nc1C [Compound I2] | 0 | 0 | 0 | 0 | 0 | 4 | 0 | 3 | 1 | 4 | 2 | 0
CC(=O)N(C)c1ncc(-c2cncc(F)c2)nc1C [Compound I6] | 0 | 1 | 1 | 1 | 0 | 4 | 2 | 5 | 3 | 5 | 3 | 0
CC(=O)Nc1ncc(-c2cncc(F)c2)nc1C(F)(F)F [Compound I3, 2-(acetylamino)-3-trifluoromethyl-5-(5-fluoropyrid-3-yl)pyrazine] | 0 | 1 | 1 | 1 | 0 | 3 | 1 | 4 | 3 | 4 | 3 | 0
CCC(=O)N(C(=O)CC)c1ncc(-c2cncnc2)nc1C(F)(F)F [Compound I12] | 0 | 1 | 1 | 1 | 0 | 3 | 1 | 3 | 2 | 4 | 2 | 0
COCCC(=O)Nc1ncc(-c2cncc(F)c2)nc1C [Compound I10] | 0 | 0 | 0 | 0 | 0 | 3 | 0 | 2 | 1 | 2 | 2 | 0
CC(=O)Nc1ncc(-c2cncc(F)c2)nc1C [Compound I9] | 0 | 0 | 0 | 0 | 0 | 2 | 0 | 4 | 2 | 3 | 1 | 0
CC(=O)N(C(C)=O)c1ncc(-c2cncc(F)c2)nc1C [Compound I5, 2-(diacetylamino)-3-methyl-5-(5-fluoropyrid-3-yl)pyrazine] | 1 | 0 | 0 | 1 | 0 | 2 | 1 | 3 | 1 | – | 2 | 0
CC(=O)N(C(C)=O)c1ncc(-c2cncnc2)nc1C(F)(F)F [Compound I8] | 1 | 1 | 0 | 1 | 0 | 4 | 1 | 4 | 2 | 5 | 2 | 0
CCC(=O)N(C(=O)CC)c1ncc(-c2cncc(F)c2)nc1C(F)(F)F [Compound I1] | 1 | 0 | 1 | 0 | 0 | 4 | 1 | 3 | 2 | 4 | 2 | 0

— patent publication US11678665B2, “Pyrazine-4-carbamate or -urea derivatives as herbicides” (Syngenta Participations AG, priority 2017, dated 2023)
